Experiment: molar heat capacity at constant pressure
Details: 101.33 kPa, Crystal, PPMS-Quantum Design

[O-][Si]([O-])([O-])[O-].[Th+4] [thorium silicate]
Details | molar heat capacity at constant pressure [J/K/mol]
1.885 K | 0.001439
1.946 K | 0.001553
2.013 K | 0.001656
2.084 K | 0.0018
2.158 K | 0.001932
2.234 K | 0.002074
2.319 K | 0.002253
2.399 K | 0.002416
2.484 K | 0.002584
2.572 K | 0.002792
2.66 K | 0.003006
2.749 K | 0.003244
2.842 K | 0.0035
2.936 K | 0.003794
3.038 K | 0.004121
3.136 K | 0.004482
3.243 K | 0.004896
3.353 K | 0.005336
3.463 K | 0.005793
3.573 K | 0.006259
3.69 K | 0.00688
3.812 K | 0.00739
3.935 K | 0.007954
4.063 K | 0.008647
4.198 K | 0.009528
4.338 K | 0.01046
4.483 K | 0.01148
4.637 K | 0.0127
4.798 K | 0.01391
4.968 K | 0.01533
5 K | 0.01646
5.151 K | 0.01714
5.343 K | 0.01921
5.54 K | 0.02152
5.744 K | 0.02438
5.956 K | 0.02725
6.175 K | 0.03065
6.401 K | 0.03406
6.631 K | 0.03824
6.869 K | 0.04281
7.113 K | 0.04768
7.362 K | 0.05303
7.62 K | 0.05923
7.885 K | 0.06632
8.158 K | 0.07389
8.441 K | 0.08256
8.734 K | 0.09321
9.036 K | 0.1048
9.352 K | 0.1182
9.685 K | 0.1338
10 K | 0.1498
10.02 K | 0.1509
10.37 K | 0.1707
10.73 K | 0.1934
11.1 K | 0.2188
11.48 K | 0.2483
11.88 K | 0.2819
12.29 K | 0.32
12.72 K | 0.3633
13.16 K | 0.4129
13.61 K | 0.4682
14.09 K | 0.5314
14.58 K | 0.603
15.08 K | 0.6838
15.61 K | 0.7739
16.14 K | 0.8747
16.71 K | 0.9903
17.29 K | 1.117
17.89 K | 1.255
18.52 K | 1.411
19.15 K | 1.576
19.81 K | 1.761
20 K | 1.81
20.51 K | 1.965
21.22 K | 2.185
21.97 K | 2.428
22.7 K | 2.683
23.5 K | 2.973
24.27 K | 3.257
25.16 K | 3.599
25.98 K | 3.941
26.91 K | 4.308
27.88 K | 4.727
28.82 K | 5.152
29.81 K | 5.6
30 K | 5.69
30.85 K | 6.085
31.93 K | 6.6
33.08 K | 7.146
34.36 K | 7.779
35.54 K | 8.309
36.76 K | 8.996
38.05 K | 9.736
39.38 K | 10.24
40 K | 10.68
40.71 K | 10.97
42.03 K | 11.71
43.53 K | 12.5
45.03 K | 13.28
46.58 K | 14.12
48.19 K | 15
49.84 K | 15.88
50 K | 16.04
51.54 K | 16.84
53.32 K | 17.83
55.17 K | 18.86
57.08 K | 19.9
59.06 K | 20.99
61.1 K | 22.12
63.21 K | 23.21
65.39 K | 24.39
67.65 K | 25.63
69.99 K | 26.91
72.42 K | 28.19
74.93 K | 29.51
77.52 K | 30.84
80.21 K | 32.24
82.99 K | 33.67
85.77 K | 35.08
88.74 K | 36.63
91.81 K | 38.21
94.98 K | 39.83
98.28 K | 41.48
100 K | 42.28
101.68 K | 43.16
105.2 K | 44.86
108.84 K | 46.57
112.61 K | 48.32
116.51 K | 50.09
120.55 K | 51.87
124.73 K | 53.61
129.04 K | 55.37
133.51 K | 57.22
138.13 K | 59.1
142.91 K | 60.93
147.86 K | 62.82
150 K | 63.64
152.97 K | 64.6
158.25 K | 66.54
163.72 K | 68.4
169.39 K | 70.23
175.25 K | 72.2
181.32 K | 74.15
187.59 K | 75.84
194.08 K | 77.96
200 K | 79.46
200.79 K | 79.76
207.73 K | 81.56
214.93 K | 83.34
222.36 K | 85.17
230.05 K | 86.81
238.01 K | 88.63
246.25 K | 90.44
250 K | 91.07
254.74 K | 92.01
263.54 K | 93.59
272.64 K | 95.02
282.08 K | 96.5
291.84 K | 98.01
298.15 K | 98.68
300 K | 98.88
302.26 K | 99.17
